Measured values published in publication PMC3557602 (Analytical biochemistry, 2012).
“Also recorded” adds a separate entry of the source. Structures can show the parent of a compound that is named as a salt.

Legend:
[1] = biological target: T1, Nterm-phos activity of human sEH (Homo sapiens, UniProt P34913); assay: AttoPhos assay in kinetic mode; format: biochemical
T1 sequence (P34913 1-555): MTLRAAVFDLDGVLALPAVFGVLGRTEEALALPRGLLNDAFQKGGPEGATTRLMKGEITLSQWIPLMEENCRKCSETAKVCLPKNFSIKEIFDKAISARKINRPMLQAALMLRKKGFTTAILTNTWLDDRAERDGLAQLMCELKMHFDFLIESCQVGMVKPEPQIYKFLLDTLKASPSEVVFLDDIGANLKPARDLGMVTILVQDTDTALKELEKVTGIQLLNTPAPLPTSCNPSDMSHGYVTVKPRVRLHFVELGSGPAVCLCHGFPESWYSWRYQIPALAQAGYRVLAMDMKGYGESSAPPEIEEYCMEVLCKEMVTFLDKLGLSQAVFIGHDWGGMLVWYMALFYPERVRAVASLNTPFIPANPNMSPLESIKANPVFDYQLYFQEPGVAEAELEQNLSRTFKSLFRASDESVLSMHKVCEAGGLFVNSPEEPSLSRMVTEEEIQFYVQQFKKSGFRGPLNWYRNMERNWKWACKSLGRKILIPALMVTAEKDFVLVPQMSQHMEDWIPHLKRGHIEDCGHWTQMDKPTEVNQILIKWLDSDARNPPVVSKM

[2] = cited from earlier work
[3] = biological target: T1, Nterm-phos activity of human sEH; assay: AttoPhos fluorescent endpoint HTS assay for sEH phosphatase activity; format: biochemical; details: for inhibition at 10 µM: read-out: inhibition of Nterm-phos in library screen; for Nominal Inhibition (%): [E] 2.1 nM, AttoPhos 25 μM, 60 min, 96-well; for inhibition of Nterm-phos in library screen: pesticide library
Cterm-EH expressed alone = biological target: T2, Cterm-EH expressed alone (Homo sapiens, UniProt P34913); assay: Inhibition of the C-terminal domain expressed separately; format: biochemical; details: 10 μM for 5 min
T2 sequence (P34913 235-555 limits assumed): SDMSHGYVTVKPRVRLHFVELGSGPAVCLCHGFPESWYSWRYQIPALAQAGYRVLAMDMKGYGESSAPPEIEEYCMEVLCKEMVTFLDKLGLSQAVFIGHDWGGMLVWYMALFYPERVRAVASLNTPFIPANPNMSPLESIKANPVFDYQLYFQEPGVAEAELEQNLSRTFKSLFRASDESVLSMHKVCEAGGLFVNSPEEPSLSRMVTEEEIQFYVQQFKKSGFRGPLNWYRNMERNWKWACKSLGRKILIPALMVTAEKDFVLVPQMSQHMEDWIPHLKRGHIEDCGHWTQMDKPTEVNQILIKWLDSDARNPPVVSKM

[4] = biological target: T3, Nterm-phos expressed alone (Homo sapiens, UniProt P34913); assay: Inhibition of the N-terminal domain expressed separately; format: biochemical; details: 10 μM for 5 min
T3 sequence (P34913 1-224 limits assumed): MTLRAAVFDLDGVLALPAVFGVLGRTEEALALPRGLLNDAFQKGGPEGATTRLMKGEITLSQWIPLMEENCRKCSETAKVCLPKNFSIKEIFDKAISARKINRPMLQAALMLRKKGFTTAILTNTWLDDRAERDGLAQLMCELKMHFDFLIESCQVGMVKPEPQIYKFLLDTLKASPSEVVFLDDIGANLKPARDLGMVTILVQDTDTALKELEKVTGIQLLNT

[5] = biological target: T4, Cterm-EH activity of human sEH (Homo sapiens, UniProt P34913); assay: Kinetic constants with a model of irreversible inhibition, PHOME 50 μM; format: biochemical; details: n = 3
T4 sequence (P34913 1-555): T1 sequence (P34913 1-555)

[6] = biological target: T4, Cterm-EH activity of human sEH; assay: Inhibition of sEH epoxide hydrolase activity; format: biochemical; details: for IC50: IC50 for Cterm-EH
[7] = biological target: T1, Nterm-phos activity of human sEH; assay: Reversibility; format: biochemical
human microsomal EH = biological target: T5, human microsomal EH (Homo sapiens, UniProt P07099); assay: Selectivity: microsomal EH inhibition; format: biochemical
T5 sequence (P07099 1-455): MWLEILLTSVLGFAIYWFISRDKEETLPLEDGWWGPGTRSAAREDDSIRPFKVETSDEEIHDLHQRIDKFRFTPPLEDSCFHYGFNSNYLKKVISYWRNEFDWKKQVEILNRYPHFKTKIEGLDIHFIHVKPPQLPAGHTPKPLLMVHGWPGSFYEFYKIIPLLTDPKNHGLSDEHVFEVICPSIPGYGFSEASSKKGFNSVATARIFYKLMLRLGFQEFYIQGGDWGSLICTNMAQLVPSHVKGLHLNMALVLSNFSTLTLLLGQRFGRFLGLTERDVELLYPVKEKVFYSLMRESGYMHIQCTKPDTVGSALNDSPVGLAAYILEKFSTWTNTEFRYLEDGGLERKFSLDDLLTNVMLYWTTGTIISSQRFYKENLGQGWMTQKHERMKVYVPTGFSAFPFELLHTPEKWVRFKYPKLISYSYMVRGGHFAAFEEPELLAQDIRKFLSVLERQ

[8] = biological target: T1, Nterm-phos activity of human sEH; assay: Kinetic constants with a model of irreversible inhibition, AttoPhos 25 μM; format: biochemical
[9] = test system: human alkaline phosphatase; assay: Selectivity: alkaline phosphatase inhibition; format: biochemical
[10] = biological target: T4, Cterm-EH activity of human sEH; assay: Reversibility; format: biochemical
[11] = test system: a series of esterases and amidases; assay: Selectivity: esterases and amidases inhibition; format: biochemical
[12] = 20 nM human sEH with 10 μM for 15 min, then dialysis
[13] = 5 mM glutathione before 10 μM for 5 min
[14] = read-out: IC50 (nominal inhibition column), nominal / overall value
[15] = read-out: IC50 Day 1, Day 1, 3 plates
[16] = read-out: IC50 Day 2, Day 2, 3 plates
[17] = read-out: IC50 Day 3, Day 3, 3 plates

Compound: O=C(O)c1ccccc1C(=O)Nc1ccc(S(=O)(=O)Nc2nccs2)cc1 [phthalyl-sulfathiazole]
- IC50 [1]: > 100000 nM

Compound: CCCCC(CC)CCC(CC(C)C)OS(=O)(=O)O (stereo not shown) [sodium tetradecyl sulfate]
- critical micelle concentration [2]: around 2 mM

Compound: O=C1c2ccccc2C(=O)N1SC(Cl)(Cl)Cl [Folpet]
- IC50 [1]: 25000 ± 3000 nM
- inhibition at 10 µM [3]: > 50%

Compound: O=c1c2ccccc2[se]n1-c1ccccc1 [ebselen]
- IC50 [1]: 400 ± 20 nM
- inhibition of Cterm-EH expressed alone (Cterm-EH expressed alone): did not significantly inhibit
- inhibition of Nterm-phos expressed alone [4]: totally inhibited
- first-order formation rate of the covalent enzyme-inhibitor complex (ki), Cterm-EH [5]: 0.39 ± 0.07 min⁻¹
- IC50 ratio Cterm-EH over Nterm-phos [6]: 5 fold
- IC50 ([6]; incubation time 1 min): 2000 ± 300 nM
- IC50 ([6]; incubation time 15 min): 850 ± 50 nM
- time to stable inhibition of Nterm-phos [7]: less than a minute
- recovery of Nterm-phos activity after dialysis [7, 12]: not able to recover any
- effect of glutathione pretreatment on Nterm-phos activity [7, 13]: protected
- inhibition of human microsomal EH (human microsomal EH): not the other enzymes tested
- Ki [8]: 550 nM
- ratio of ki, Nterm-phos over Cterm-EH [8]: around 7 fold
- first-order formation rate of the covalent enzyme-inhibitor complex (ki), Nterm-phos ([8]; n = 3): 2.58 ± 0.05 min⁻¹
- inhibition of human alkaline phosphatase [9]: did not inhibit; also recorded: not the other enzymes tested
- recovery of Cterm EH activity after dialysis [10, 12]: not able to recover any
- effect of glutathione pretreatment on Cterm-EH activity [10, 13]: protected
- Cterm-EH activity recovered on glutathione added after exposure ([10]; glutathione added 5 min after exposure): 30%
- inhibition of esterases and amidases [11]: not the other enzymes tested

Compound: CCCCCCCCCCCCS(=O)(=O)O [C00002, dodecyl sulfonate]
- Nominal Inhibition (%) ([3]; [I] 1.6 μM): 9 ± 6%
- Nominal Inhibition (%) ([3]; [I] 3.1 μM): 26 ± 4%
- Nominal Inhibition (%) ([3]; [I] 6.3 μM): 54 ± 4%
- Nominal Inhibition (%) ([3]; [I] 12.5 μM): 78 ± 3%
- Nominal Inhibition (%) ([3]; [I] 25 μM): 89 ± 1%
- IC50 [3, 14]: 6600 ± 800 nM
- IC50 [3, 15]: 6300 ± 300 nM
- IC50 [3, 16]: 6100 ± 300 nM
- IC50 [3, 17]: 7500 ± 1200 nM

Compound: CCCCCCCCCCCCOP(=O)(O)O [C00003, dodecyl phosphoric acid]
- inhibition of Nterm-phos in library screen ([3]; 1 μM): more than 50%
- inhibition of Nterm-phos in library screen ([3]; 10 μM): more than 50%
- Nominal Inhibition (%) ([3]; [I] 0.8 μM): 19 ± 4%
- Nominal Inhibition (%) ([3]; [I] 1.6 μM): 39 ± 5%
- Nominal Inhibition (%) ([3]; [I] 3.1 μM): 70 ± 3%
- Nominal Inhibition (%) ([3]; [I] 6.3 μM): 91 ± 1%
- Nominal Inhibition (%) ([3]; [I] 12.5 μM): 98 ± 1%
- IC50 [3, 14]: 2200 ± 300 nM
- IC50 [3, 15]: 1800 ± 200 nM
- IC50 [3, 16]: 2300 ± 200 nM
- IC50 [3, 17]: 2400 ± 100 nM

Compound: S=C(S)NCCNC(=S)S [Nabam]
- IC50 [1]: > 100000 nM
- inhibition at 10 µM [3]: > 50%

Compound: CC(=O)N1CCN(c2ccc(OCC3COC(Cn4ccnc4)(c4ccc(Cl)cc4Cl)O3)cc2)CC1 (stereo not shown) [ketoconazole]
- IC50 [1]: > 100000 nM
